Four compounds from ChEMBL document CHEMBL1132725, “Evaluation of new L-thiocitrulline derivatives as inhibitors of nitric oxide synthase” (Bioorg Med Chem Lett, 2000) can be followed below.

Assay [1] concerns the target Nitric oxide synthase 1 (Rattus norvegicus) (UniProt P29476). In words: Compound was tested for the percent inhibition of nitric oxide synthase (n) using [14C]L-citrulline as radioligand. The note with it: concentration not given here.
Assay [2] has as its target T1, Nitric oxide synthase, inducible (Mus musculus) (UniProt P29477).
T1 sequence (whole entry): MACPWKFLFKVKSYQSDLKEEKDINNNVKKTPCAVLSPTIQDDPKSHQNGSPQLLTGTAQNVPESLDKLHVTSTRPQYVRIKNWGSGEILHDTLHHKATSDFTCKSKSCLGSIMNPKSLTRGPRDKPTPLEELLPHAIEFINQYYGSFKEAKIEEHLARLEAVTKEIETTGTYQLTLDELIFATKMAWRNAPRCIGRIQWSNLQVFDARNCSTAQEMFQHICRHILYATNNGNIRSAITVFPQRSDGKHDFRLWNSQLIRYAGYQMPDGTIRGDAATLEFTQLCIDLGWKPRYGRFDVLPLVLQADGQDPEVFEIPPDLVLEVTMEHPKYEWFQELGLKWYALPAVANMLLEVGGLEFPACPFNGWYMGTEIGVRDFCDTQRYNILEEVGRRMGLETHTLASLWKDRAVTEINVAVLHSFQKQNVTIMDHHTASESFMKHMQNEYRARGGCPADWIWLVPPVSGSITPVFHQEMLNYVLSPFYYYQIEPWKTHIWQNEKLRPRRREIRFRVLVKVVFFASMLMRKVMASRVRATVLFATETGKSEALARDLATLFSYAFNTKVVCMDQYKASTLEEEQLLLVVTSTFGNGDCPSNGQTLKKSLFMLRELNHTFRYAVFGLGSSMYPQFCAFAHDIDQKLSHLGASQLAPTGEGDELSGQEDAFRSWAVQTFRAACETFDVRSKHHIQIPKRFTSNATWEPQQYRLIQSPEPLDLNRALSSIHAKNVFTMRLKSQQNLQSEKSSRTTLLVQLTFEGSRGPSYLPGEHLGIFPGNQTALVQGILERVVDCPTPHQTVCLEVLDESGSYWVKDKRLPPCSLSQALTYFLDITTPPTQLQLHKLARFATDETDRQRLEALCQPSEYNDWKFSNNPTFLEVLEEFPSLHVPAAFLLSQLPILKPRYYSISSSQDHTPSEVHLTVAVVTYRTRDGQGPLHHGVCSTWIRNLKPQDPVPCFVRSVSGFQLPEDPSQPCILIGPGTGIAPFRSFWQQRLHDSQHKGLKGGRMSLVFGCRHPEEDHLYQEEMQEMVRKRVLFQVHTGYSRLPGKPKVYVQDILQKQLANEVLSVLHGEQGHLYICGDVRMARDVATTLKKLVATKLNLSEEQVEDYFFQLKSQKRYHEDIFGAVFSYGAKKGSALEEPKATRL
In words: Compound was tested for the percent inhibition of nitric oxide synthase (i) using [14C]L-citrulline as radioligand. As to conditions: concentration not given here.

Assay [3] has as its target T2, Nitric oxide synthase 3 (Bos taurus) (UniProt P29473).
T2 sequence (whole entry): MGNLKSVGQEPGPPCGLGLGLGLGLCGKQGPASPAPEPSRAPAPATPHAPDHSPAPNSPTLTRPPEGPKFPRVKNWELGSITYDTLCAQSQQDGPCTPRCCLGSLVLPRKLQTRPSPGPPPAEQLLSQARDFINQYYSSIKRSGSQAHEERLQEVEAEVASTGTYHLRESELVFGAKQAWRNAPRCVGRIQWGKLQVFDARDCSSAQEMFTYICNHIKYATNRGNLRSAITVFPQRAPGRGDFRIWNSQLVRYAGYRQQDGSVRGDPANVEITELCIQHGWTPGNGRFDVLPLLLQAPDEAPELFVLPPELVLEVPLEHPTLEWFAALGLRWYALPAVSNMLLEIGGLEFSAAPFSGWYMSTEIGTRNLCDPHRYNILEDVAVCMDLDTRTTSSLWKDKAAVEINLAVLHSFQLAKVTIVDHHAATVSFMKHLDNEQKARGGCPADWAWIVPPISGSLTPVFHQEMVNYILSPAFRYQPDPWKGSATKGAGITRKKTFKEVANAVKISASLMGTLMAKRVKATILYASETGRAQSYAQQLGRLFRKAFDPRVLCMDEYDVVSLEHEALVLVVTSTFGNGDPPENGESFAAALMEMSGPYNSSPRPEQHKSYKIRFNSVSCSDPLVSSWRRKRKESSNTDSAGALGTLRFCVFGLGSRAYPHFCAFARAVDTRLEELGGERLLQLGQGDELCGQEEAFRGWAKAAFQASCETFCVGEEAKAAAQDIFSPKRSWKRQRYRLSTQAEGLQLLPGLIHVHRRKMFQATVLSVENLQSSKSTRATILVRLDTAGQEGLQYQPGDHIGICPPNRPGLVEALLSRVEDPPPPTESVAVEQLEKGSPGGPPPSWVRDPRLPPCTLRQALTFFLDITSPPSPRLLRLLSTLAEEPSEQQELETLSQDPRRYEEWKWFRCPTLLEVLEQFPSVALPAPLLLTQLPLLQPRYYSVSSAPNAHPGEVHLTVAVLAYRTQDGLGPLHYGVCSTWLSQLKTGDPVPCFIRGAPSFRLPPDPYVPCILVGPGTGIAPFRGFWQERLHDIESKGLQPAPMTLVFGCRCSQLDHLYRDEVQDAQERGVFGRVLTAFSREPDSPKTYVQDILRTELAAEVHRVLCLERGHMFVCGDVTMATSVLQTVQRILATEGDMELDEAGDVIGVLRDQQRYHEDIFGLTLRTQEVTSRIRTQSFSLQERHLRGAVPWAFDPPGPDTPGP
In words: Compound was tested for the percent inhibition of nitric oxide synthase (e) using [14C]L-citrulline as radioligand. As to conditions: concentration not given here.

Assay [4] concerns the target Nitric oxide synthase 1 (Rattus norvegicus, UniProt P29476). Put plainly: Compound was tested for the competitive inhibition of nitric oxide synthase (n) using [14C]L-citrulline as radioligand.; value ranges from 0.06-2 uM.
In assay [5] the target is T3, Nitric oxide synthase, inducible (Mus musculus, UniProt P29477).
T3 sequence (P29477 whole entry): T1 sequence (whole entry)
In words: Compound was tested for the competitive inhibition of nitric oxide synthase (i) using [14C]L-citrulline as radioligand. value ranges from 3.6-9 uM.

A word on the inhibition: it is how much of the control response was suppressed. A low value points to a weak effect. By Ki is commonly meant a measure of affinity in units of concentration, obtained from inhibition or displacement. Low readings indicate higher affinity, high ones lower affinity.

Structures are written as SMILES.

Nitric oxide synthase 1 (Rattus norvegicus), sequence (P29476 whole entry): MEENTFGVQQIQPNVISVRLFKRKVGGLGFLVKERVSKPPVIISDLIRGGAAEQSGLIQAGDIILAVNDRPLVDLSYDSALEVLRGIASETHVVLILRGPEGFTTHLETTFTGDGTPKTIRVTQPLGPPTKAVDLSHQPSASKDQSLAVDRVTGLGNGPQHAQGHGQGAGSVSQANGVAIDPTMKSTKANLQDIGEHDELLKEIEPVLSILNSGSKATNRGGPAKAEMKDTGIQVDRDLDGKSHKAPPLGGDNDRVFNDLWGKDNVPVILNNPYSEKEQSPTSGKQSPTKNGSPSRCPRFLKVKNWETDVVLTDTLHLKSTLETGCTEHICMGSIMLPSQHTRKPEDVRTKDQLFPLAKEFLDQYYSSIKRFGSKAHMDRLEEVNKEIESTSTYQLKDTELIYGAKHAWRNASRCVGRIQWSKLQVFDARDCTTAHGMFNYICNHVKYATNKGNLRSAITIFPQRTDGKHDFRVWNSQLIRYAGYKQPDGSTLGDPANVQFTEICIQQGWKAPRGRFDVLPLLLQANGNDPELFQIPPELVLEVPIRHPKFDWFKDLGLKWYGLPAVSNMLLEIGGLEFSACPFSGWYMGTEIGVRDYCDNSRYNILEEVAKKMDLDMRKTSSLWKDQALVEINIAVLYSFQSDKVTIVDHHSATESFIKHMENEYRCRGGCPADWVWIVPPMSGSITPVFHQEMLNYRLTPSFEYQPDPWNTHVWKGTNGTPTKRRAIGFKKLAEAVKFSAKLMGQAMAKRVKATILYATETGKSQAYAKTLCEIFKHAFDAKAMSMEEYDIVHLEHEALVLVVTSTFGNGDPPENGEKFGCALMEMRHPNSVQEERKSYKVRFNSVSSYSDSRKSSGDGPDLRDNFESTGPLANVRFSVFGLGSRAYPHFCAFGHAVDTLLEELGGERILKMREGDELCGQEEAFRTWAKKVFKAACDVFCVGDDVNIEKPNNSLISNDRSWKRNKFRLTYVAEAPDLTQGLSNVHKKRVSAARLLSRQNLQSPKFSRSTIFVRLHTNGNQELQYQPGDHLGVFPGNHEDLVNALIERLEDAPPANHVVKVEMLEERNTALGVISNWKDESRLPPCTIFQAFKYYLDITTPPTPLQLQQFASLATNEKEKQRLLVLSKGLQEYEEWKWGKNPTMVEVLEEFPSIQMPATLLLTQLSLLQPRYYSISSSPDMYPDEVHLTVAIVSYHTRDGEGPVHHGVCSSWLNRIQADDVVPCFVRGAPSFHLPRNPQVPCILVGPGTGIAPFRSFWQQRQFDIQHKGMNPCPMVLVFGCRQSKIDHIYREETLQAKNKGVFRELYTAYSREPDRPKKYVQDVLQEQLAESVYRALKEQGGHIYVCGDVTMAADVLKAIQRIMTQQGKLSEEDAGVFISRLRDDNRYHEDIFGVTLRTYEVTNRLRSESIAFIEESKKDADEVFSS
Nitric oxide synthase 1, sequence (P29476 whole entry): as above

In the case of `CS/C(S)=N/CCC[C@H](N)C(=O)O`, the figures for the inhibition in assay [1], in assay [2] and in assay [3] were 27%, 54% and 25%, respectively.
On the same counts, the results for `CSC(=NCCC[C@H](N)C(=O)O)SC` are 39%, 56% and 46%.
The compound `CCOP(=S)(NCCC[C@H](N)C(=O)O)OCC` registered an inhibition in assay [2] below 10%.
Regarding `N/C(S)=N/CCC[C@H](N)C(=O)O`, the inhibition in assay [1], in assay [2] and in assay [3] was above 99% in each case. The inhibitory constant (Ki) in assay [4] was determined as 0.06 µM; in assay [5] it was 3.6 µM.
